Measured values published in PMC12693182, “Synthesis and QSAR Studies of Claramine Derivatives, a New Class of Broad-Spectrum Antimicrobial Agents” (Molecules, 2025).
≈ marks a conversion by molar mass, not a printed value.

Columns and labels:
E. coli ATCC 25922 = test: MIC, broth microdilution; assay type: cell-based, Escherichia coli; conditions: ATCC strain; for MIC: Escherichia coli, ATCC25922, 24 h
Description: (§1) Antimicrobial activity of the compounds was studied by determination of minimal inhibitory concentrations (MIC) according to the NCCLS guidelines M7-A2 using the microbroth dilution methods. The bacteria strains were grown on trypticase soy agar (Becton Dickinson) at 37 °C for 24 h. Inocula were prepared in TCE (tryptone 0.1%, […], wt/vol) by ajusting the turbidity at 623 nm to obtain 1–3 10^5 CFU/mL.
(§2) Antimicrobial activities of the compounds were determined by using a broth microdilution method performed in sterile 96-well microplates. All compounds were solubilized in water at a concentration of 10 mM and were transferred to each microplate well in order to obtain a two-fold serial dilution in 100 µL of broth and 100 µL of inoculum containing 2–6 10^5 CFU of each bacterium were added to each well. Some wells were reserved for positive controls and inoculum viability.

S. intermedius 1051997 = test: MIC, broth microdilution; assay type: cell-based, Staphylococcus intermedius; conditions: for MIC: Staphylococcus intermedius, 1051997, 24 h
Description: as §1, §2

[1] = tested on: Gram-positive and Gram-negative human and veterinary reference strains; test: MIC against the panel of Gram-positive and Gram-negative reference strains; assay type: cell-based; conditions: Homo sapiens, 24 h, over several or all of the tested pathogens
Source text: Typically, cytotoxicity was expressed as the half maximal inhibitory concentration (IC50), defined as the concentration of a compound that decreases cell viability by 50% relative to untreated cells. This parameter provides a quantitative measure of a compound’s toxic potential toward mammalian cells. To facilitate data interpretation, we defined the Therapeutic Ratio (TR) as the ratio of IC50 (µg/mL) to MIC (µg/mL). This dimensionless parameter provides a straightforward measure of antibacterial selectivity, allowing direct comparison of cytotoxicity and antibacterial potency. A high TR value indicates compounds with strong antibacterial activity at concentrations far below their cytotoxic threshold, whereas a TR close to unity reflects poor selectivity and limited therapeutic potential. […] Within the Claramine A series, variations in IC50 strongly impacted TR values (Figure 5).
as §1, §2

E. faecalis ATCC29212 = test: MIC, broth microdilution; assay type: cell-based, Enterococccus faecalis; conditions: ATCC strain; for MIC: Enterococcus faecalis, ATCC29212, 24 h, read-out: MIC E. faecalis 29212
Description: as §1, §2

P. aeruginosa 1051575 = test: MIC, broth microdilution; assay type: cell-based, Pseudomonas aeruginosa; conditions: for MIC: Pseudomonas aeruginosa, 1051575, 24 h; for MIC / MIC P. aeruginosa 1051575: 24 h
Description: as §1, §2

P. aeruginosa ATCC 27853 = test: MIC, broth microdilution; assay type: cell-based, Pseudomonas aeruginosa; conditions: ATCC strain; for MIC: Pseudomonas aeruginosa, ATCC27853, 24 h
Description: as §1, §2

[2] = tested on: Chinese hamster Ovary cells (CHO-K1); test: Cytotoxicity assay (WST-1 / Neutral Red); assay type: cell-based; conditions: 24-h incubation; for IC50: Cricetulus griseus, 24 h
Description: The cytotoxic activities of compounds were assessed on Chinese hamster Ovary cells (CHO-K1) provided from ATCC-LGC Standards Sarl (Molsheim, France). Cells were maintained in Mc Coy’s 5A (CHO) medium supplemented with 10% bovine calf serum, 2 mM glutamine, and 100 U mL^−1/10 µg mL^−1 penicillin/streptomycin mixtures. For the cytotoxicity experiments, they were seeded in 96-well plates and incubated at 37 °C in humidified atmosphere containing 5% CO2 overnight, then concentrations of compounds were incorporated in triplicate cultures. After a 24-h incubation period at 37 °C, cells were submitted to three successive washes in phosphate buffer saline (PBS) and cell viability was evaluated by two different vital dyes: • i. A first set of cell cultures was incubated in PBS containing 10% WST-1 for 30 min at 37 °C, 5% CO2. Cell viability was evaluated by the assessment of WST-1 absorbance at 450 nm in a microplate spectrophotometer. • ii. A second set of cell cultures was placed into Neutral Red medium (50 μg mL^−1 Neutral Red in complete medium) and incubated for 3 h at 37 °C, 5% CO2. Then the Neutral Red medium was removed and the distaining solution (50% ethanol, 1% acetic acid, 49% distilled water; 50 µL per well) was added into the wells. The plates were shaken for 15–20 min at room temperature in the dark. Cell viability was evaluated by the assessment of absorbance at 540 nm in a microplate spectrophotometer.
Results were expressed as percentages of cell viability about the control (culture medium-only), which corresponded to 100% cell viability. Dose-response curves were calculated by non-linear regression analysis with TableCurve 2D software (V 5.0.1) (Systat Software Inc., San Jose, CA, USA). The Inhibitory Concentration 50% (IC50) was defined as the concentration of compounds that induced a 50% decrease of viable cells.

S. aureus 340 = test: MIC, broth microdilution; assay type: cell-based, Staphylococcus aureus; conditions: for MIC: Staphylococcus aureus, 340, 24 h; for MIC S. aureus 340: 24 h
Description: as §1, §2

S. aureus ATCC 25923 = test: MIC, broth microdilution; assay type: cell-based, Staphylococcus aureus; conditions: ATCC strain; for MIC: Staphylococcus aureus, ATCC25923, 24 h
Description: as §1, §2

E. coli 1956 = test: MIC, broth microdilution; assay type: cell-based, Escherichia coli; conditions: for MIC: Escherichia coli, 1956, 24 h
Description: as §1, §2

| SMILES | MIC (E. coli ATCC 25922) | MIC (S. intermedius 1051997; 24 h) | MIC (E. faecalis ATCC29212) | MIC (P. aeruginosa 1051575) | MIC (P. aeruginosa ATCC 27853) | IC50 CHO [2] | IC50 [2] | MIC (S. aureus 340) | MIC (S. aureus ATCC 25923) | MIC S. aureus 340 (S. aureus 340) | MIC (E. coli 1956) | further results |
| --- | --- | --- | --- | --- | --- | --- | --- | --- | --- | --- | --- | --- |
| COC(=O)CCC(C)C1CCC2C3C(O)CC4CC(NCCCN5CCN(CCCN)CC5)CCC4(C)C3CC(O)C12C (stereo not shown) [Claramine B07] | 15 µg/mL (≈ 24.8 µM) | 4 µg/mL (≈ 6.61 µM) | 8 µg/mL (≈ 13.2 µM) | 15 µg/mL (≈ 24.8 µM) | 30 µg/mL (≈ 49.6 µM) | 80 µg/mL (≈ 132 µM) | > 60 µg/mL | 8 µg/mL (≈ 13.2 µM) | 4 µg/mL (≈ 6.61 µM) | – | – | MIC [1]: 0.7 to 30 µg/mL (≈ 1.16 to 49.6 µM) |
| COC(=O)CCC(C)C1CCC2C3C(O)CC4CC(NCCCNCCCNCCCN)CCC4(C)C3CCC12C (stereo not shown) [Claramine D02] | – | – | – | – | – | 20 µg/mL (≈ 34.7 µM) | – | – | – | 4 µg/mL (≈ 6.93 µM) | – | MIC E. coli 25922 (E. coli ATCC 25922; 24 h): 4 µg/mL (≈ 6.93 µM); MIC E. coli 1956 (E. coli 1956; 24 h): 60 µg/mL (≈ 104 µM); MIC S. intermedius 1051997 (S. intermedius 1051997; 24 h): 1 µg/mL (≈ 1.73 µM); MIC E. faecalis 29212 (E. faecalis ATCC29212; 24 h): 30 µg/mL (≈ 52 µM); MIC P. aeruginosa 1051575 (P. aeruginosa 1051575): 7 µg/mL (≈ 12.1 µM); MIC P. aeruginosa 27853 (P. aeruginosa ATCC 27853; 24 h): 30 µg/mL (≈ 52 µM); MIC S. aureus 25923 (S. aureus ATCC 25923; 24 h): 7 µg/mL (≈ 12.1 µM) |
| CC(C)OC(=O)CCC(C)C1CCC2C3C(O)CC4CC(NCCN(CCN)CCN)CCC4(C)C3CCC12C (stereo not shown) [Claramine D10] | 110 µg/mL (≈ 195 µM) | 7 µg/mL (≈ 12.4 µM) | 56 µg/mL (≈ 99.5 µM) | – | 110 µg/mL (≈ 195 µM) | 80 µg/mL (≈ 142 µM) | – | – | 28 µg/mL (≈ 49.7 µM) | 28 µg/mL (≈ 49.7 µM) | 56 µg/mL (≈ 99.5 µM) | MIC P. aeruginosa 1051575 (P. aeruginosa 1051575): 14 µg/mL (≈ 24.9 µM) |
| CC(C)OC(=O)CCC(C)C1CCC2C3CCC4CC(NCCCNCCCCNCCCN)CCC4(C)C3CCC12C (stereo not shown) [Claramine E01] | 15 µg/mL (≈ 24.9 µM) | 2 µg/mL (≈ 3.32 µM) | 8 µg/mL (≈ 13.3 µM) | 8 µg/mL (≈ 13.3 µM) | 15 µg/mL (≈ 24.9 µM) | – | 24 µg/mL (≈ 39.8 µM) | 4 µg/mL (≈ 6.63 µM) | 4 µg/mL (≈ 6.63 µM) | – | 8 µg/mL (≈ 13.3 µM) | – |
| CC(C)OC(=O)CCC(C)C1CCC2C3CCC4CC(NCCCNCCCNCCCN)CCC4(C)C3CCC12C (stereo not shown) [Claramine E02] | 14 µg/mL (≈ 23.8 µM) | 1 µg/mL (≈ 1.7 µM) | 14 µg/mL (≈ 23.8 µM) | 2 µg/mL (≈ 3.4 µM) | 28 µg/mL (≈ 47.5 µM) | – | 15 µg/mL (≈ 25.5 µM) | 7 µg/mL (≈ 11.9 µM) | 7 µg/mL (≈ 11.9 µM) | – | 7 µg/mL (≈ 11.9 µM) | – |
| CC(C)OC(=O)CCC(C)C1CCC2C3CCC4CC(NCCCNCCCCN)CCC4(C)C3CCC12C (stereo not shown) [Claramine E03] | 100 µg/mL (≈ 183 µM) | 2 µg/mL (≈ 3.66 µM) | 7 µg/mL (≈ 12.8 µM) | 7 µg/mL (≈ 12.8 µM) | 27 µg/mL (≈ 49.5 µM) | – | 56 µg/mL (≈ 103 µM) | 7 µg/mL (≈ 12.8 µM) | 3 µg/mL (≈ 5.5 µM) | – | 14 µg/mL (≈ 25.6 µM) | – |
| CC(C)OC(=O)CCC(C)C1CCC2C3CCC4CC(NCCCN5CCN(CCCN)CC5)CCC4(C)C3CCC12C (stereo not shown) [Claramine E05] | 15 µg/mL (≈ 25 µM) | 15 µg/mL (≈ 25 µM) | 30 µg/mL (≈ 49.9 µM) | 8 µg/mL (≈ 13.3 µM) | 60 µg/mL (≈ 99.8 µM) | 50 µg/mL (≈ 83.2 µM) | 46 µg/mL (≈ 76.5 µM) | 8 µg/mL (≈ 13.3 µM) | 15 µg/mL (≈ 25 µM) | – | 15 µg/mL (≈ 25 µM) | – |
| COC(=O)CCC(C)C1CCC2C3CCC4CC(NCCCNCCCN)CCC4(C)C3CCC12C (stereo not shown) [Claramine E09] | 32 µg/mL (≈ 63.5 µM) | 0.7 µg/mL (≈ 1.39 µM) | 32 µg/mL (≈ 63.5 µM) | – | 32 µg/mL (≈ 63.5 µM) | 80 µg/mL (≈ 159 µM) | > 60 µg/mL | 1 µg/mL (≈ 1.98 µM) | 16 µg/mL (≈ 31.8 µM) | 0.7 µg/mL (≈ 1.39 µM) | 3 µg/mL (≈ 5.95 µM) | Therapeutic Ratio (TR) (S. intermedius 1051997; IC50 (CHO)/MIC, S. intermedius): 65–114; MIC [1]: 0.7 to 30 µg/mL (≈ 1.39 to 59.5 µM); Therapeutic Ratio (TR) (P. aeruginosa 1051575; IC50 (CHO)/MIC, P. aeruginosa): > 10 |
| CC(C)OC(=O)CCC(C)C1CCC2C3CCC4CC(NCCN(CCN)CCN)CCC4(C)C3CCC12C (stereo not shown) [Claramine E22] | 110 µg/mL (≈ 201 µM) | 7 µg/mL (≈ 12.8 µM) | 55 µg/mL (≈ 101 µM) | 55 µg/mL (≈ 101 µM) | 110 µg/mL (≈ 201 µM) | 105 µg/mL (≈ 192 µM) | 107 µg/mL (≈ 196 µM) | 14 µg/mL (≈ 25.6 µM) | 14 µg/mL (≈ 25.6 µM) | – | 55 µg/mL (≈ 101 µM) | – |
